We go through 20 molecules from patent US5643784A, “Indan derivatives” (H, Lundbeck A/S, priority 1990, dated 1997).

SMILES strings stand for the structures.

Assay [1] deals with T1, 5-HT2 receptors (Rattus norvegicus, UniProt P14842).
T1 construct: cortical tissue is dissected and weighed; from tissue; host or cells: cortex of male Wistar rats, crude membranes
The experiment in a line: Inhibition of 3H-ketanserin binding to 5-HT2 receptors in rat cortex in vitro. The conditions noted are these: 3H-Ketanserin 0.5 nM, rat cortex, 37° C., 30 min; read-out: Receptor Binding; IC50 5-HT2 3H-Ket. Here is the method:
Method in Hyttel, Pharmacology & Toxicology, 61, 126-129, 1987.
Male Wistar (Mol:Wist) rats (125-250 g) are sacrificed and cortical tissue is dissected and weighed. The tissue is homogenized (Ultra Turrax, 10 sec.) in 10 ml of ice-cold 50 mM tris buffer pH 7.7 (at 25° C.). The centrifuge glassware used in this step has been rinsed by sonication for 10 min. in ethanol. The homogenate is centrifuged twice at 20,000 g for 10 min. at 4° C. with rehomogenization of the pellet in 10 ml ice-cold buffer. The final pellet is homogenized in 500 vol (w/v) ice-cold buffer.
Incubation tubes kept on ice in triplicate receive 100 μl of drug solution in water (or water for total binding) and 2000 μl of tissue suspension (final tissue content corresponds to 4 mg original tissue). […] After incubation for 30 min. the samples are filtered under vacuum (0-50 mBar) through Whatman GF/F filters (25 mm). The tubes are rinsed with 5 ml ice-cold buffer which are then poured on the filters. Thereafter, the filters are washed with 2×5 ml of buffer. The filters are placed in counting vials and 4 ml of appropriate scintillation fluid (e.g. Picofluor™15) are added. After shaking for 1 h and storage 2 hrs in the dark the content of radioactivity is determined by liquid scintillation counting. Specific binding is obtained by subtracting the nonspecific binding in the presence of 1 μM mianserin.
(§1) For determination of the inhibition of binding five concentrations of drugs covering 3 decades are used.
The IC50 value is determined as the concentration at which the binding is 50% of the total binding in control samples minus the nonspecific binding in the presence of 1 μM mianserin.

Assay [2] addresses α1 adrenoceptors. The experiment in a line: Inhibition of 3H-prazosin binding to α1 adrenoceptors in rat brain in vitro. The conditions noted are these: 3H-Prazosin 0.25 nM, rat brain, 25° C., 20 min; read-out: Receptor Binding; IC50 α1 3H-Praz. As to the method:
INHIBITION OF ^3 H-PRAZOSIN BINDING TO α1 ADRENOCEPTORS IN RAT BRAIN IN VITRO
Method and results in Hyttel & Larsen, J. Neurochem, 44, 1615-1622, 1985; Skarsfeldt & Hyttel, Eur. J. Pharmacol. 125, 323-340, 1986.
Male Wistar (Mol:Wist) rats (125-200 g) are sacrificed and brain tissue is dissected and weighed. The tissue is homogenized (Ultra Turrax, 10 sec.) in 10 ml of ice-cold […] Tris buffer pH 7,7 (at 25° C.). The homogenate is centrifuged twice at 20,000 g for 10 min. at 4° C. with rehomogenization of the pellet in 10 ml ice-cold buffer. The final pellet is homogenized in 400 vol (w/v) ice-cold buffer.
Incubation tubes kept on ice in triplicate receive 100 μl of drug solution in water (or water for total binding) and 4000μl of tissue suspension (final tissue content corresponds to 10 mg original tissue). The binding experiment is initiated by addition of 100 μl of ^3 H-Prazosin (final concentration 0.25 nM) and by placing the tubes in a 25° C. water bath. After incubation for 20 min. the samples are filtered under vacuum (0-50 mBar) through Whatman GF/F filters (25 mm). The tubes are rinsed with 5 ml ice-cold buffer which then are poured on the filters. Thereafter, the filters are washed with 5 ml of buffer. The filters are placed in counting vials and 4 ml of appropriate scintillation fluid (e.g. Picofluor™15) are added. After shaking for 1 h and storage 2 hrs in the dark the content of radioactivity is determined by liquid scintillation counting. Specific binding is obtained by subtracting the nonspecific binding in the presence of 1 μM of Prazosin.
as §1
The measured cpm are plotted against drug concentration on semilogarithmic paper and the best fitting S-shaped curve is drawn. The IC50 value is determined as the concentration at which the binding is 50% of the total binding in control samples minus the nonspecific binding in the presence of 1 μM of Prazosin.
^3 H-Prazosin=[furoyl-5-^3 H]-Prazosin from New England Nuclear, specific activity approximately 20 Ci/mmol.

T1 sequence (P14842 whole entry): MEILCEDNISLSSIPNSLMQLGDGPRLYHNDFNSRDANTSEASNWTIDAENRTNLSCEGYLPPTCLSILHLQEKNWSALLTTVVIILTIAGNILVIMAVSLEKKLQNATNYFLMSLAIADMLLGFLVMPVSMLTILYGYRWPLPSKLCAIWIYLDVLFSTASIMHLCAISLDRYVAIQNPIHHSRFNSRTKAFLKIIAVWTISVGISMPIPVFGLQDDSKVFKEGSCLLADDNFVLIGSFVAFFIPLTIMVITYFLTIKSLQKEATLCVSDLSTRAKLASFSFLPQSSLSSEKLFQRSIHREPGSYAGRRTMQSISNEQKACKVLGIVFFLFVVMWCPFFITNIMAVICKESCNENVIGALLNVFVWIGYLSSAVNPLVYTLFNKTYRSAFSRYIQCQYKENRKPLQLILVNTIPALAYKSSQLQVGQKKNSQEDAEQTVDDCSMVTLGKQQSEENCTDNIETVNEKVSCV

Regarding `OCCN1CCN([C@H]2C[C@H](c3ccc(F)cc3)c3cc(F)ccc32)CC1` (single isomer, unassigned) [(+)-2], the IC50 in assay [1] was 12 nM; in assay [2], 72 nM. As for `Cc1ccc2c(c1)[C@@H](c1ccc(F)cc1)C[C@@H]2N1CCN(CCN2CCN(C(C)C)C2=O)CC1` (relative stereo) [Compound 12, Trans-1-[2-[4-[3-(4-fluorophenyl)-5-methyl-2,3-dihydro-1-H-inden-1-yl]piperazin-1-yl]ethyl]-3-isopropyl-2-imidazolidinone], the figures for the IC50 in assay [1] and in assay [2] were 3 nM and 120 nM, respectively. In the case of `OCCN1CCN([C@H]2C[C@H](c3ccc(F)cc3)c3cc(F)ccc32)CC1` (single isomer, unassigned) [(-)-2], the IC50 in assay [1] came to 500 nM; in assay [2], 1100 nM. On to `O=C1CCCN1CCN1CCN([C@H]2C[C@H](c3ccc(F)cc3)c3cc(Cl)ccc32)CC1` (relative stereo) [Compound 15, Trans-1-[2-[4-[5-chloro-3-(4-fluorophenyl)-2-3-dihydro-1-H-inden-1-yl]piperazin-1-yl]ethyl]-2-pyrrolidinone], for which the IC50 was 10 nM in assay [1] and 370 nM in assay [2]. The like results for `O=C1NCCCN1CCN1CCN([C@@H]2C[C@@H](c3ccc(F)cc3)c3cc(Cl)ccc32)CC1` (single isomer, unassigned) [(-)-34, (-)-Trans-1-[2-[4-[5-chloro-3-(4-fluorophenyl)-2,3-dihydro-1H-inden-1-yl]piperazin-1-yl]ethyl]-tetrahydro-2(1H)-pyrimidinone] were, in that order, 1.3 nM and 62 nM.

Take `CC(C)N1CCN(CCN2CCN([C@@H]3C[C@@H](c4ccc(F)cc4)c4cc(Cl)ccc43)CC2)C1=O` (single isomer, unassigned) [(-)-11, (-)-Trans-1-[2-[4-[5-chloro-3-(4-fluorophenyl)-2,3-dihydro-1H-inden-1-yl]piperazin-1-yl]-ethyl]-3-isopropyl-2-imidazolidinone]: the IC50 in assay [1] stood at 1.1 nM; in assay [2], 210 nM.

Consider `O=C1NCCN1CCN1CCN([C@@H]2C[C@@H](c3ccc(F)cc3)c3cc(Cl)ccc32)CC1` (relative stereo) [Compound 4, Trans-1-[2-[4-[5-chloro-3-(4-fluorophenyl)-2,3-dihydro-1H-inden-1-yl]piperazine-1-yl]ethyl]-2-imidazolidinone], for which the values for the IC50 in assay [1] and in assay [2] were 2.9 nM and 200 nM, respectively. With `CC(C)N1CCN(CCN2CCN([C@H]3C[C@H](c4ccc(F)cc4)c4cc(Cl)ccc43)CC2)C1=O` (single isomer, unassigned) [(+)-11], the results for the IC50 in assay [1] and in assay [2] were 75 nM and 340 nM, respectively. In the case of `Fc1ccc([C@@H]2C[C@@H](N3CCN(CCN4CCCNC4=S)CC3)c3ccc(Cl)cc32)cc1` (single isomer, unassigned) [(+)-32, (+)-Trans-1-[2-[4-[5-chloro-3-(4-fluorophenyl)-2,3-dihydro-1H-inden-1-yl]piperazin-1-yl]ethyl]-tetrahydro-2(1H)-pyrimidinethione], the IC50 in assay [1] was 21 nM; in assay [2] it was 350 nM. Take `O=C1NCCN1CCCN1CCN([C@H]2C[C@H](c3ccc(F)cc3)c3cc(Cl)ccc32)CC1` (relative stereo) [Compound 16, Trans-1-[3-[4-[5-chloro-3-(4-fluorophenyl)-2,3-dihydro-1-H-inden-1-yl]piperazin-1-yl]propan-1-yl]-2-imidazolidinone]: the IC50 is 10 nM in assay [1] and 73 nM in assay [2]. As for `Fc1ccc([C@@H]2C[C@@H](N3CCN(CCN4CCCNC4=S)CC3)c3ccc(F)cc32)cc1` (single isomer, unassigned) [(-)-30, (-)-Trans-1-[2-[4-[5-fluoro-3-(4-fluorophenyl)-2,3-dihydro-1H-inden-1-yl]piperazin-1-yl]ethyl]-tetrahydro-2(1H)-pyrimidinethione], the IC50 in assay [1] was found to be 42 nM. Take `O=C1NCCCN1CCN1CCN([C@@H]2C[C@@H](c3ccc(F)cc3)c3cc(Cl)ccc32)CC1` (single isomer, unassigned) [(+)-34, (+)-Trans-1-[2-[4-[5-chloro-3-(4-fluorophenyl)-2,3-dihydro-1H-inden-1-yl]piperazin-1-yl]ethyl]-tetrahydro-2(1H)-pyrimidinone]: the IC50 in assay [1] was determined as 120 nM.

As to `O=C1OCCN1CCN1CCN([C@H]2C[C@H](c3ccc(F)cc3)c3cc(Cl)ccc32)CC1` (relative stereo) [Compound 14, Trans-3-[2-[4-[5-chloro-3-(4-fluorophenyl)-2,3-dihydro-1-H-inden-1-yl]piperazin-1-yl]ethyl]-2-oxazolidinone], the IC50 in assay [1] came to 23 nM; in assay [2] it was 140 nM. As to `Fc1ccc([C@@H]2C[C@@H](N3CCN(CCN4CCCNC4=S)CC3)c3ccc(Cl)cc32)cc1` (relative stereo) [Compound 32, Trans-1-[2-[4-[5-chloro-3-(4-fluorophenyl)-2,3-dihydro-1H-inden-1-yl]piperazin-1-yl]ethyl]-tetrahydro-2(1H)-pyrimidinethione], the IC50 in assay [1] stood at 1.5 nM; in assay [2], 170 nM. On to `Fc1ccc([C@@H]2C[C@@H](N3CCN(CCN4CCCNC4=S)CC3)c3ccc(F)cc32)cc1` (relative stereo) [Compound 30, Trans-1-[2-[4-[5-fluoro-3-(4-fluorophenyl)-2,3-dihydro-1H-inden-1-yl]piperazin-1-yl]ethyl]-tetrahydro-2(1H)-pyrimidinethione], for which the IC50 amounted to 1.7 nM in assay [1] and 110 nM in assay [2]. `OCCN1CCN([C@H]2C[C@H](c3ccc(F)cc3)c3cc(Cl)ccc32)CC1` (single isomer, unassigned) [(-)-3]: the values for the IC50 in assay [1] and in assay [2] were 11 nM and 210 nM, respectively. Turning to `OCCN1CCN([C@H]2C[C@H](c3ccc(F)cc3)c3cc(F)ccc32)CC1` (relative stereo) [Compound 2, Trans-4-[5-fluoro-3-(4-fluorophenyl)-2,3-dihydro-1H-inden-1-yl]-1-piperazine ethanol], the IC50 was found to be 21 nM in assay [1] and 150 nM in assay [2]. Consider `Fc1ccc([C@@H]2C[C@@H](N3CCN(CCN4CCNC4=S)CC3)c3ccc(F)cc32)cc1` (relative stereo) [Compound 29, Trans-1-[2-[4-[5-fluoro-3-(4-fluorophenyl)-2,3-dihydro-1H-inden-1-yl]piperazin-1-yl]-ethyl]-2-imidazolidinthione], for which the IC50 in assay [1] was 1.5 nM; in assay [2], 110 nM. As to `O=c1[nH]c2ccccc2n1CCN1CCN([C@@H]2C[C@@H](c3ccc(F)cc3)c3cc(Cl)ccc32)CC1` (relative stereo) [Compound 25, Trans-1-[2-[4-[5-chloro-3-(4-fluorophenyl)-2,3-dihydro-1H-inden-1-yl]piperazin-1-yl]ethyl]-benzimidazolin-2-one], the IC50 in assay [1] came to 5.6 nM. For the molecule `OCCN1CCN([C@H]2C[C@H](c3ccc(F)cc3)c3cc(Cl)ccc32)CC1` (single isomer, unassigned) [(+)-3], the IC50 was 230 nM in assay [1] and 2500 nM in assay [2].
